Test results: patent US20240208905A1, “ABIRATERONE DERIVATIVE, PREPARATION AND APPLICATION THEREOF” (GUANGDONG ZHONGKE MEDICINE R&D LTD., priority 2021, published 2024)
Marks after values point to notes of the source that are not given here.

Columns and labels:
[1] = test system: experimental rabbit ear acne; experiment: Pharmacodynamics evaluation of acne: coal tar rabbit ear acne model, HE pathology; format: in vivo, Japanese big-ear white rabbits; conditions: 0.01% ointment, 1 g per animal, once a day, two weeks, 10 rabbits per group; for Degree of keratinization: number of rabbits graded + / Degree of keratinization: number of rabbits graded ++ / Degree of keratinization: number of rabbits graded +++ / Degree of keratinization: number of rabbits graded −: hair follicle keratinization
From the text: There are 140 male healthy Japanese big-ear white rabbits, weighing 2.0-2.5 kg. After one week of adaptive rearing, 10 rabbits were randomly selected according to their body weights as the normal control group, and the remaining 130 rabbits were coated with coal tar once a day in the area of 2×2 cm2 at 2 cm outside the opening of ear canal, with a thickness of about 0.5 mm (Before coating, the coal tar was heated to melt in a water bath, and the last coal tar shell was removed before each application; the rabbits in normal control group were coated with olive oil by the same method as before). After 3 weeks for modeling, according to the degree of skin lesion, 130 rabbits were randomly divided into 13 groups which is model control group, Example 1 compound (1 group), Example 2 compound (2 groups), Example 3 compound (3 groups), Example 4 (4 groups), Example 5 (5 groups), Example 6 (6 groups), Example 7 (7 groups), Example 8 (8 groups), Example 9 (9 groups), Example 10 (10 groups), Example 11 (11 groups), Example 12 (12 groups), Example 13 (13 groups), and each group had 10 rabbits. After grouping, each dose group were continued to be coated coal tar in the morning, and after the coal tar was removed in the afternoon, apply the test drug or control drug (both 0.01%/10 g ointment, apply 1 g ointment per animal) on the lesion, once a day, for two consecutive weeks (the model control group and the normal control group were coated with the same amount of matrix). 24 hours after the last administration, the animals were sacrificed by air embolism, and the skin (full thickness) of the ear where the administration was administered was taken, fixed with 4% paraformaldehyde solution, stained with HE, and routinely observed for pathology.1.

[2] = test system: human prostate cancer cell VCaP nude mouse transplanted tumor model; experiment: Prostate tumor pharmacodynamics experiment: VCaP nude mouse transplanted tumor model; format: in vivo, BALB/c nude mice; conditions: 0.5 mmol·kg−1 i.g. QD; for inhibition in vivo at 500 µmol/kg: Mus musculus, VCaP, po, 600 h, read-out: Growth Inhibition rate (GI); for Tumor volume, day 25: * P<0.05, ** P<0.01 vs solvent control
Protocol: Male BALB/c nude mice (number: 90; age: 6-7 weeks) purchased from Beijing Vital River Laboratory Animal Technology Co., Ltd., were raised in the SPF animal room of Suzhou Shengsu New Drug Development Co., Ltd. at a temperature of 20˜25° C. and a relative humidity 40%˜70%, and bright and dark illumination for 12 hours respectively; these mice were allowed to drink and eat freely. After normal feeding for about 6 days, mice with good physical signs can be selected for this experiment after veterinary inspection. Before grouping, animals were identified at their base of tail using marking pens. After grouping, each animal was identified by ear clipping.
Human prostate cancer cells VCaP were obtained from the Shanghai Cell Bank of the Chinese Academy of Sciences (CAS, cryopreserved in liquid nitrogen in our laboratory).
Under a culture condition of 5% CO2 and 37° C., VCaP cells were routinely cultured in DMEM medium containing 10% fetal bovine serum. Digested with 0.25% trypsin and passaged, VCaP cells were passaged 2-3 times per week based on cell growth, with a passage ratio of 1:3 to 1:5.
The VCaP cells in logarithmic growth phase were collected, counted, and resuspended in 50% DMEM basal medium and 50% Matrigel Matrix, and the cell concentration was adjust to 5×10^7 cells/mL; the cells was placed in an ice box; Cell suspension was aspirated with a 1 ml syringe, and injected subcutaneously to the anterior right armpit of nude mice. Each animal was inoculated with 200 μL (1×10^7 cells/mouse), and a VCaP transplant tumor model in nude mice was established. Regularly observe the status of mice, measure the diameter of the tumor with an electronic vernier caliper, input the data into Excel spreadsheets, calculate the tumor volume, and monitor its growth. When the tumor volume reached 100-300 mm3, 60 mice with good health and similar tumor volume were selected, and divided into 10 groups (n=6) based on the tumor volume using random block method, while ensuring that the average body weight of each group remained consistent as much as possible. The day of grouping was taken as the first day of the experiment (D1). The tumor diameters were measured twice a week after the initiation of the experiment, the tumor volumes were calculated, and the body weights of the animals were weighed and recorded at the same time.
Preparation of DMSO&PEG400&PG (v:v:v, 10:60:30): appropriate volumes of DMSO, PEG400 and PG were drawed respectively, and mixed well. The ratio of DMSO, PEG400 and PG in the mixture is 10:60:30 (v:v:v), and this mixture is used as a blank solvent and stored at room temperature.
Appropriate amount of the test compound was weighed and added into a glass bottle, appropriate volume of solvent DMSO was added, be treated with vortex ultrasonication, then appropriate volumes of PEG400 and PG were added in turn, be vortex mixed to obtain a dosing formulation with a final concentration of 0.05M. The dosing formulation was stored in refrigerator at 2-8° C. after subpackaging, and was stirred evenly with vortex before each administration. The dosing formulation was prepared every 7 days, and was subpackaged and stored in refrigerator at 4° C.
Appropriate amount of ZONK1901-10 was weighed and added into a glass bottle, appropriate volume of corn oil, was added, be treated with vortex ultrasonication evenly, a dosing formulation with a final concentration of 19.58 mg·mL-1 (0.05 M) was obtained.

[3] = Pharmacokinetic experiment after intragastric administration in mice (LC-MS/MS of ZONK1901-1 and ZONK1901-2)
Protocol: To study the pharmacokinetic properties after intragastric administration in mice.
Each mouse was collected at 2-3 discrete points in time.
An LC-MS/MS analysis method for determining the concentrations of ZONK 1901-1 and ZONK1901-2 in mouse whole blood was established. At the same time, the obtained plasma concentration data was calculated by using the pharmacokinetic processing software Pharsight Phoenix WinNonlin8.0 non-compartmental model to calculate relevant pharmacokinetic parameters.

[4] = test system: tumor model mice inoculated with Vcap (human prostate cancer cells); conditions: intraperitoneal injections, cited from earlier work
[5] = metabolite ZONK1901-1 (M1) in mouse blood after intragastric administration of the group's compound
[6] = metabolite ZONK1901-2 (M2) in mouse blood after intragastric administration of the group's compound

| Structure (SMILES) | degree of inflammatory cell infiltration: number of rabbits graded + [1] | degree of inflammatory cell infiltration: number of rabbits graded ++ [1] | degree of inflammatory cell infiltration: number of rabbits graded +++ [1] | degree of inflammatory cell infiltration: number of rabbits graded − [1] | Degree of keratinization: number of rabbits graded + [1] | Degree of keratinization: number of rabbits graded ++ [1] | Degree of keratinization: number of rabbits graded +++ [1] | Degree of keratinization: number of rabbits graded − [1] | inhibition in vivo at 500 µmol/kg ([2]; day 25, vs solvent control) | Tumor volume, day 25 ([2]; day 25, n=6) | also measured |
| --- | --- | --- | --- | --- | --- | --- | --- | --- | --- | --- | --- |
| C[C@]12CCC(=NOC(=O)N3CCC(N4CCCCC4)CC3)C=C1CC[C@H]1[C@@H]2CC[C@]2(C)C(c3cccnc3)=CC[C@@H]12 [Example 4, (8S,9S,10R,13S,14S)-10,13-Dimethyl-17-(pyridin-3-yl) -6,7,8,9,10,11,12,13,14,15-decahydro-1H-cyclopentene[a]phenanthrenyl-3(2H)-one O-([1,4′-bipiperidine]-1′-carbonyl)oxime] | 5 | 3 | 2 | 0 | 7 | 3 | 0 | 1 | 84.2% | 377 ± 37 ** mm3 | – |
| Cc1ccccc1C(=O)ON=C1C=C2CC[C@H]3[C@H](CC[C@]4(C)C(c5cccnc5)=CC[C@@H]34)[C@@]2(C)CC1 [Example 5, (8S,9S,10R,13S,14S)-10,13-Dimethyl-17-(pyridin-3-yl) -6,7,8,9,10,11,12,13,14,15-decahydro-1H-cyclopenta[a]phenanthrenyl-3(2H)-one O-(2-methylbenzoyl)oxime] | 6 | 3 | 1 | 0 | 6 | 4 | 0 | 0 | 85.2% | 410 ± 44 ** mm3 | – |
| CNCCC(=O)ON=C1C=C2CC[C@H]3[C@H](CC[C@]4(C)C(c5cccnc5)=CC[C@@H]34)[C@@]2(C)CC1 [Example 6, (8S,9S,10R,13S,14S)-10,13-Dimethyl-17-(pyridin-3-yl) -6,7,8,9,10,11,12,13,14,15-decahydro-1H-cyclopenta[a]phenanthrenyl-3(2H)-one O-(3-(methylamino)propionyl)oxime] | 6 | 3 | 1 | 0 | 5 | 5 | 0 | 0 | – | 405 ± 15 * mm3 | AUC0-inf [3, 5]: 2396 nM·h; AUC0-t [3, 5]: 2103 nM·h; Cmax [3, 5]: 679 nM; Tmax [3, 5]: 2.00 h; t1/2 [3, 5]: 2.73 h; AUC0-inf [3, 6]: 2287 nM·h; AUC0-t [3, 6]: 2237 nM·h; Cmax [3, 6]: 421 nM; Tmax [3, 6]: 2.00 h; t1/2 [3, 6]: 3.17 h; Tumor volume, Day 1 ([2]; Day 1 (day of grouping, start of dosing), n=6): 227 ± 21^ mm3; Growth Inhibition rate (GI) ([2]; day 25, vs solvent control): 80.7% ** |
| CC(=O)O[C@H]1CC[C@@]2(C)C(=CC[C@@H]3[C@@H]2CC[C@]2(C)C(c4cccnc4)=CC[C@@H]32)C1 [ZONK1901-10, abiraterone acetate, reference compound] | – | – | – | – | – | – | – | – | 44.1% | 765 ± 46 * mm3 | M2 (ZONK1901-2) in the metabolites ([3]; intragastric administration): not detected; Autopsy finding on absorption of the drug [4]: some of the drugs were not absorbed; Adverse findings in tumor model mice ([4]; some mice): developed abdominal distension and died |
